The values below come from paper PMC10227015, “From a drug repositioning to a structure-based drug design approach to tackle acute lymphoblastic leukemia” (Nature Communications, 2023).

Common to all, as to assay: KINOMEscan competition binding
What all share (conditions): OR0642 1 µM; read-out: %Control

For assay [1], the target named is T1, ABL1-nonphosphorylated (Homo sapiens, UniProt P00519).
T1 construct: purchased Eurofins DiscoverX (KINOMEscan scanEDGE 97)
The procedure: (§1) Kinome profiling was provided by Eurofins DiscoverX Corporation. Determination of the % control activity for 97 kinases was obtained through an active site-directed competition binding assay that quantitatively measure interactions between compound and kinases. OR0642 was used at 1 μM.
(§2) Supplementary Table 3. KINOMEscan™ Profiling of OR0642. Competition binding assay to quantitatively measure interactions between OR0642 (1 µM) and 97 human kinases and disease relevant mutant variants.
(§3) Target Gene Symbol %Control Target Gene Symbol %Control […]

In assay [2] the target is T2, MAPKAPK2 (Homo sapiens, UniProt P49137).
T2 construct: purchased Eurofins DiscoverX (KINOMEscan scanEDGE 97)
The procedure: as §1, §2, §3

The target in assay [3] is T3, PIM3 (Homo sapiens, UniProt Q86V86).
T3 construct: purchased Eurofins DiscoverX (KINOMEscan scanEDGE 97)
On the procedure:
as §1, §2, §3

Assay [4] deals with T4, PLK4 (Homo sapiens, UniProt O00444).
T4 construct: purchased Eurofins DiscoverX (KINOMEscan scanEDGE 97)
On the procedure: as §1, §2, §3

Assay [5] concerns the target T5, PRKCE (Homo sapiens, UniProt Q02156).
T5 construct: purchased Eurofins DiscoverX (KINOMEscan scanEDGE 97)
The procedure: as §1, §2, §3

Assay [6] concerns the target T6, RAF1 (Homo sapiens, UniProt P04049).
T6 construct: purchased Eurofins DiscoverX (KINOMEscan scanEDGE 97)
On the procedure: as §1, §2, §3

The target of assay [7] is T7, RET (Homo sapiens, UniProt P07949).
T7 construct: purchased Eurofins DiscoverX (KINOMEscan scanEDGE 97)
On the procedure:
as §1, §2, §3

The target of assay [8] is T8, RSK2(Kin.Dom.1-N-terminal) (Homo sapiens, UniProt P51812).
T8 construct: RSK2(Kin.Dom.1-N-terminal); purchased Eurofins DiscoverX (KINOMEscan scanEDGE 97)
On the procedure:
as §1, §2, §3

Assay [9] concerns the target T9, SNARK (Homo sapiens, UniProt Q9H093).
T9 construct: purchased Eurofins DiscoverX (KINOMEscan scanEDGE 97)
The procedure: as §1, §2, §3

Assay [10] addresses T10, SRPK3 (Homo sapiens, UniProt Q9UPE1).
T10 construct: purchased Eurofins DiscoverX (KINOMEscan scanEDGE 97)
The procedure: as §1, §2, §3

For assay [11], the target named is T11, TIE2 (Homo sapiens, UniProt Q02763).
T11 construct: purchased Eurofins DiscoverX (KINOMEscan scanEDGE 97)
T11 sequence (Q02763 23-1124): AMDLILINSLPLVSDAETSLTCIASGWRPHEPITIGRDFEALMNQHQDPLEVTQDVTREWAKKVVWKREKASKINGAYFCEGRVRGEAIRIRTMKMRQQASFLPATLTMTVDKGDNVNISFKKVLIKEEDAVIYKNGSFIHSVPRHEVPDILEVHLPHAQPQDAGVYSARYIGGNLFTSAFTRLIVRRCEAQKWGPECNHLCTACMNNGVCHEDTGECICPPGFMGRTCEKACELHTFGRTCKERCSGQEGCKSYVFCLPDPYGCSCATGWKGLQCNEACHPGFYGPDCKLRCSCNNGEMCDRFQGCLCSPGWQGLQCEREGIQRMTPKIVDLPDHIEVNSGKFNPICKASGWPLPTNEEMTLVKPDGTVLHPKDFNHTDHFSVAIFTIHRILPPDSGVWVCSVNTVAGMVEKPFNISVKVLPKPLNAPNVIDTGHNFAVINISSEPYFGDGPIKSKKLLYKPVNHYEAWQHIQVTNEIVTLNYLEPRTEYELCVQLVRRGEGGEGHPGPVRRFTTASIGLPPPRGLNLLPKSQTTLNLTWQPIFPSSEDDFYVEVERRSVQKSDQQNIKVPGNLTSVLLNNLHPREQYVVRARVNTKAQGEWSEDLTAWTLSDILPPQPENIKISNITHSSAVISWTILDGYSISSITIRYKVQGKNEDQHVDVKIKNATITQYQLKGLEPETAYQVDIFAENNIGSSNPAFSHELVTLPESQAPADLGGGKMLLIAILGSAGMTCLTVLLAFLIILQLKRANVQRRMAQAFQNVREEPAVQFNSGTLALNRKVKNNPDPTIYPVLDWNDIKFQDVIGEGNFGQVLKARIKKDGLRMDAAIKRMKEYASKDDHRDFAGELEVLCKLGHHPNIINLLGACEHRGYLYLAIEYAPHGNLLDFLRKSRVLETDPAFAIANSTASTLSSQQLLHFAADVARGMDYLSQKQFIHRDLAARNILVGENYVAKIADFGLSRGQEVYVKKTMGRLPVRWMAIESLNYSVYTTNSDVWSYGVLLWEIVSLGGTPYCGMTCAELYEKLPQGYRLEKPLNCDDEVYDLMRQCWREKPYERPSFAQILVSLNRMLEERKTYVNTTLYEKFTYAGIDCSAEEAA
The procedure:
as §1, §2, §3

In assay [12] the target is T12, TSSK1B (Homo sapiens, UniProt Q9BXA7).
T12 construct: purchased Eurofins DiscoverX (KINOMEscan scanEDGE 97)
On the procedure: as §1, §2, §3

Assay [13] concerns the target T13, ULK2 (Homo sapiens, UniProt Q8IYT8).
T13 construct: purchased Eurofins DiscoverX (KINOMEscan scanEDGE 97)
The procedure:
as §1, §2, §3

Assay [14] addresses T14, VEGFR2 (Homo sapiens, UniProt P35968).
T14 construct: purchased Eurofins DiscoverX (KINOMEscan scanEDGE 97)
The procedure: as §1, §2, §3

Assay [15] concerns the target T15, ZAP70 (Homo sapiens, UniProt P43403).
T15 construct: purchased Eurofins DiscoverX (KINOMEscan scanEDGE 97)
The procedure: as §1, §2, §3

Assay [16] deals with T16, p38-beta (Homo sapiens, UniProt Q15759).
T16 construct: purchased Eurofins DiscoverX (KINOMEscan scanEDGE 97)
On the procedure: as §1, §2, §3

T13 sequence (Q8IYT8 whole entry): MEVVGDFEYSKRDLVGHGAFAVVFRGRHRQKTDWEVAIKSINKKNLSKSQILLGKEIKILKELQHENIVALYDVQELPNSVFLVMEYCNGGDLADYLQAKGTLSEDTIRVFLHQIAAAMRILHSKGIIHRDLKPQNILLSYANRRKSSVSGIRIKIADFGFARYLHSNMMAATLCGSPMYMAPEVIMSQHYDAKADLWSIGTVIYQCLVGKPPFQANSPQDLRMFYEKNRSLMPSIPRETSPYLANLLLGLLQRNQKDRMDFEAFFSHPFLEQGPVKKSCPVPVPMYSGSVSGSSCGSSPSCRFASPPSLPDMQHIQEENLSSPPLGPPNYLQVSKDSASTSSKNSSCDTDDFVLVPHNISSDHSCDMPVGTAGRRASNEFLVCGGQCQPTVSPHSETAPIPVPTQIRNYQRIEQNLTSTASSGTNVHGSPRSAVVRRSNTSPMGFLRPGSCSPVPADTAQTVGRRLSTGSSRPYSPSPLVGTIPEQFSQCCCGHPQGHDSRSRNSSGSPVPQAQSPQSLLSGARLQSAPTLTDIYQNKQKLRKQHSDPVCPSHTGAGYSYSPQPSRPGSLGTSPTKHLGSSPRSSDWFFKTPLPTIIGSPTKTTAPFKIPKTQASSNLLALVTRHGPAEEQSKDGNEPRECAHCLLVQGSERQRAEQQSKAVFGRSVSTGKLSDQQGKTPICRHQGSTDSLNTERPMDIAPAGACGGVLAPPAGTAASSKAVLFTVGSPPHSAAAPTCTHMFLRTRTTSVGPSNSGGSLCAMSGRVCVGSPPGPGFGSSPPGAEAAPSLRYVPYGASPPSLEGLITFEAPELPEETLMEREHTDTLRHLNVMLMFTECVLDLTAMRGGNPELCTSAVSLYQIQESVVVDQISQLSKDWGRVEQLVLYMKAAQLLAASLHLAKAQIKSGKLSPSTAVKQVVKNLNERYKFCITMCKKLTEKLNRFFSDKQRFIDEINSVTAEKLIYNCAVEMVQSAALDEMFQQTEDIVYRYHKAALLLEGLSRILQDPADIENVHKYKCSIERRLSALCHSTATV
T5 sequence (Q02156 whole entry): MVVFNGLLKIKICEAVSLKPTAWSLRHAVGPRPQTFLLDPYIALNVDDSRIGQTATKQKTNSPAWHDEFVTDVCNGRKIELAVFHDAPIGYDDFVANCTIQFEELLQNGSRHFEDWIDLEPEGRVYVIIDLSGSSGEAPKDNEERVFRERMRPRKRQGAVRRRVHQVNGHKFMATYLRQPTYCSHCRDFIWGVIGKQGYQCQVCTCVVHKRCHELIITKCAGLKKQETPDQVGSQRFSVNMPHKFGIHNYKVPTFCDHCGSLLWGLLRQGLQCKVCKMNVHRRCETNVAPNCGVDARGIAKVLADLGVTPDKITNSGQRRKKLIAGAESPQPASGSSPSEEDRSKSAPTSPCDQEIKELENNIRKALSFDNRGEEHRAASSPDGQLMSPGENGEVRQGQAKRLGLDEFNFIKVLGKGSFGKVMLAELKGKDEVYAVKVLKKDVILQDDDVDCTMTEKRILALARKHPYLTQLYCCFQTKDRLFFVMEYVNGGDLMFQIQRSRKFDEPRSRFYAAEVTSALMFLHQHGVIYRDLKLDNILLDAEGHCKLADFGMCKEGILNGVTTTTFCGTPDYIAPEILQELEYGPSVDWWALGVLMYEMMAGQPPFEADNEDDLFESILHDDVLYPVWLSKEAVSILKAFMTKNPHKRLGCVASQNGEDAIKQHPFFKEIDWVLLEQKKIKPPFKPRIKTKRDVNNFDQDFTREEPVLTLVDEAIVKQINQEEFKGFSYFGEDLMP
T1 sequence (P00519 whole entry): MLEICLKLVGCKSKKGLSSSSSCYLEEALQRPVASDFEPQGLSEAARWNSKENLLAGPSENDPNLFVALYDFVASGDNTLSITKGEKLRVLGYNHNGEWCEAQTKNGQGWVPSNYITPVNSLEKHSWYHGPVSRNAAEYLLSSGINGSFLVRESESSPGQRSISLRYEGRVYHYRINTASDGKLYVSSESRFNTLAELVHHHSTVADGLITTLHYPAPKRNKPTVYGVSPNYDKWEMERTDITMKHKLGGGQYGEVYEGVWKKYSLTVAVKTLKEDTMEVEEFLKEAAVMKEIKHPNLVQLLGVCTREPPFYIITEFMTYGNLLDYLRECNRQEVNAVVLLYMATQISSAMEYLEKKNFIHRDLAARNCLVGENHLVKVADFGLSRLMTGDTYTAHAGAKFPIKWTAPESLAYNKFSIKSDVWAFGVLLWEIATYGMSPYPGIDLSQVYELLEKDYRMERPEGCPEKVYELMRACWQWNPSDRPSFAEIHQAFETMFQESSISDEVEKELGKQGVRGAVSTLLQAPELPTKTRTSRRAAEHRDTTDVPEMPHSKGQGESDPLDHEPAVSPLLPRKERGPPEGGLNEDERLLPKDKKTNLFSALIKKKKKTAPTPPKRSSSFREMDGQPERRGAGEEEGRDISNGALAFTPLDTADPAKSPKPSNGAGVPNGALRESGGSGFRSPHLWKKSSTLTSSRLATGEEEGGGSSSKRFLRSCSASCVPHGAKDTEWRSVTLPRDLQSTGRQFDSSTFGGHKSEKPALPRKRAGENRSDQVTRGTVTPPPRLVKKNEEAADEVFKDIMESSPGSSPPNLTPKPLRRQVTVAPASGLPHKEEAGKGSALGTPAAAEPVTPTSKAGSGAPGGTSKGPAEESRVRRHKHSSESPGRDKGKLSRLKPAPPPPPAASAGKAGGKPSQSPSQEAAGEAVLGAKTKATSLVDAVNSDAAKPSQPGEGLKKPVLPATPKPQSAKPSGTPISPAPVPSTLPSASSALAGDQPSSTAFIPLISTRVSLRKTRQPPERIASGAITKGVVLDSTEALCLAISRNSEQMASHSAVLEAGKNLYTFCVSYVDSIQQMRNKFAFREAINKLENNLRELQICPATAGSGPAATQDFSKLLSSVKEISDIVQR
T15 sequence (P43403 whole entry): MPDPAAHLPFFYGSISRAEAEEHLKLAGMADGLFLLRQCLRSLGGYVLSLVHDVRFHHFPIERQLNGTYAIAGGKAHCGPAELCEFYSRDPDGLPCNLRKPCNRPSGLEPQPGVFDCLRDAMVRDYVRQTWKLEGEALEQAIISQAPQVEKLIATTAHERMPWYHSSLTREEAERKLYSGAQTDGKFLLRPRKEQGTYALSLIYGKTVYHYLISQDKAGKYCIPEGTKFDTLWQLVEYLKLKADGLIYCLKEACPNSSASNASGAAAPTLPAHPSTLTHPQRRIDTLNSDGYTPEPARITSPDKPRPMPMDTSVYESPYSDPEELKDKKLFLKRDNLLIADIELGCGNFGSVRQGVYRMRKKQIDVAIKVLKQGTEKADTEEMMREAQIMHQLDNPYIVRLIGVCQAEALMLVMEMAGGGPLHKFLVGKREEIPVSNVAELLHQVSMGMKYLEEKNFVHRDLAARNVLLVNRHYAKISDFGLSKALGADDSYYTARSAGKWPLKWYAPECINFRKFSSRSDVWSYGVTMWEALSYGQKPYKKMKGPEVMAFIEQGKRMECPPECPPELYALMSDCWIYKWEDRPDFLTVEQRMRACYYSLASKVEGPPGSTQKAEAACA

For the compound `CCCN(c1nc(-c2nc(N)cc(N)n2)cs1)c1cc(-c2ccc(S(=O)(=O)N3CCN(C)CC3)cc2C(F)(F)F)ccc1C` [OR0642], the remaining binding at 1 µM in [1] was determined as 94%; in [2] it was 100%; in [3], 100%; in assay [4], 81%; in [5], 100%; in assay [6], 88%. The remaining binding at 1 µM stood at 100% in assay [7]; 100% in [8]; 88% in assay [9]; 93% in [10]; 94% in assay [11]; 100% in [12]. In addition, the remaining binding at 1 µM turned out to be 95% in [13], 100% in assay [14], 97% in assay [15] and 91% in assay [16].
